According to paper PMC6273344, “Biochemical Characteristics of Three Laccase Isoforms from the Basidiomycete Pleurotus nebrodensis” (Molecules, 2015):
Structures can show the parent of a compound that is named as a salt.

Tests used:
Details in all cases: McIlvaine buffer at optimum pH (3.0); ABTS 125-5000 uM; O2 as co-substrate
Lac2 = system: Lac2
Lac1 = system: Lac1
Lac3 = system: Lac3

- Km (Lac2): 550 µM
- Km (Lac1): 160 µM
- Km (Lac3): 104 µM
SMILES: CCn1c(=NN=c2sc3cc(S(=O)(=O)O)ccc3n2CC)sc2cc(S(=O)(=O)O)ccc21 [ABTS, 2,2′-azino-bis(3-ethylbenzothiazoline-6-sulfonic acid) diammonium salt]
